# Test results published in patent US11352421B2, “Treatment for adverse immune reaction to metal implant debris” (RUSH UNIVERSITY MEDICAL CENTER, priority 2018, dated 2022).
# *: point of attachment. Cbz = O=C(OCc1ccccc1)*; CH2F = FC*
# Tests used:
# [1] = tested on: human peripheral blood mononuclear cells; test: Metal-LTT of human lymphocytes (PBMCs): proliferation by 3H-thymidine incorporation with inflammasome or IL-17A inhibitors; type: cell-based; details: for lymphocyte proliferation in response to Ni in the presence of inhibitor / lymphocyte proliferation to Ni combined with inhibitor compared to media control: metal-reactive individuals' lymphocytes, 6 days; for lymphocyte proliferation in response to Ni in the presence of inhibitor: compared with Ni challenge without inhibitor; for lymphocyte proliferation to Ni combined with inhibitor compared to media control: versus media challenge; for lymphocyte proliferation, mean response to Ni: Ni alone
# Method: De-identified human peripheral blood mononuclear cells were isolated from 30 mL of peripheral blood using density gradient separation (Ficoll-isopaque, Pharmacia, Piscataway, N.J.). Ficoll gradient separated mononuclear cells are generally comprised of 85-95% lymphocytes with 5-13% monocytes and <0.1% dendritic cells with limited contamination (i.e., <5% erythrocytes and <3% granulocytes). Collected PBMCs (white buffy coat) were washed in sterile 1×PBS and resuspended in RPMI-1640 medium with 10% autologous serum and cultured with either no metal (plain media) as a negative control, PHA as a positive control, or with soluble nickel (NiCl2) or cobalt (CoCl2) at 37° C. and […] for 6 days. At day 5 of cell culture, ^3H-thymidine was added. At day 6, T-cell proliferation was assessed via ^3H-thymidine incorporation that was determined using a beta scintillation counter.
# (§1) Isolated human PBMCs were co-incubated in vitro with either MCC950, a NLRP3 inflammasome inhibitor (InvivoGen), Caspase-1 inhibitor (Caspase-1/ICE inhibitor Z-WEHD-FMK) or recombinant human IL-1Ra (R&D Systems. Inc., Minneapolis, Minn.) for metal-LTT assay or cytokine analysis according to manufacturer's protocol and working concentration. Caicedo et al., J. Biomed. Mater. Res. A 93(4):1312-1321 (2010).
# (§2) Isolated human PBMCs were co-incubated in vitro with IL-17A monoclonal antibody (eBio64CAP17; ThermoFisher Scientific) for neutralization of IL-17A bioactivity for metal-lymphocyte transformation test assay or cytokine analysis according to the manufacturer's protocol and concentration.
# IL-17A/F [2] = test: Sandwich ELISA for human IL-17A/F in supernatants of metal-challenged PBMCs; type: cell-based; details: metal-reactive individuals' lymphocytes; supernatants harvested on day 6
# Method: as §1, §2
# (§3) Sandwich ELISAs for mouse IL-17A/F and IFN-γ (R&D Systems Inc., Minneapolis, Minn.) were used to detect cytokine production in both non-sensitized and metal-sensitized female mouse spleens and isolated CD4+ T-cells that were harvested 48 h post paw re-challenge to metal allergen (day 14). Supernatants from control and metal-challenged murine cells were collected after 4 days. […] All samples for ELISA were performed in triplicate in 96 well plates and were stored at −80° C. until analysis, following manufacturer's protocol.
# [3] = tested on: metal-sensitized C57BL/6 mice; test: In vivo delayed type hypersensitivity (DTH) to orthopedic implant metal(s): paw inflammation by digital caliber; details: day 14, no treatment, p<0.0001 vs vehicle group
# Method: DTH responses comprise two phases: (1) sensitization and (2) effector phase. […] Ashrin et al., J. Immunol. 192(9):4025-4031 (2014); Sato et al., Clin. Exp. Allergy 37(5):743-751 (2007). […] (2) Effector phase to implant metal(s): Re-exposure to the metal allergen leads to DTH reaction during the effector phase. Therefore, on day 12, a 50 μL mixture of either sterile 1×PBS (control group) or NiCl2 (metal-sensitized group) with an equivalent volume of CFA was injected subcutaneously on top of the right paw. DTH was determined 48 h post re-exposure to metal allergen (day 14) by measuring changes in paw inflammation using a digital caliber (blinded assessment) and the induced difference was recorded. Each group consisted of 3-5 mice and experiments were performed at least three independent times.
# Anti-mouse IL-1R1: A set of metal-sensitized C57BL/6 female mice received local paw administration on day 12 with 200 μg of anti-mouse IL-1R1 (for local in vivo blocking of IL-1R during the effector phase of metal-DTH responses) (clone JAMA-147; BioLegend, San Diego, Calif.) in concert with NiCl2 and CFA. Rogers et al., Proc. Natl. Acad. Sci. USA 89(3):1011-1015 (1992); Rogers et al., J. Immunol. 153(5):2093-2101 (1994). […]
# IL-17A/F [4] = test: Sandwich ELISA for mouse IL-17A/F in supernatants of metal-challenged CD4+ T cells; type: cell-based; details: CD4+ T cells from metal-sensitized Caspase-1−/− mice
# Method: (§4) In addition to determination of paw swelling after recall with NiCl2, proliferation in vitro of lymphocytes was measured. Spleens were obtained aseptically 48 h after challenge and splenic effector CD4+ T cells were isolated using negative selection kit following manufacturer's protocol (EasySep Mouse CD4+ T cell isolation kit; 2.5×10^5 cells/per well in 96 well flat bottom plates). Splenic CD4+ T cells were co-incubated with syngeneic mitomycin-C treated naïve splenic (2.5×10^5 cells/per well) antigen-presenting cells (APCs) with or without 0.0001 mM or 0.001 mM of soluble metal ions NiCl2 or CoCl2, and 0.01 mg/mL phytohemagglutinin (PHA) as a positive control, in RPMI 1640 media containing 10% fetal bovine serum (FBS; Hyclone Laboratories, Inc.) at 37° C. and […] for 4 days. Syngeneic naïve spleen APCs were incubated at 5×10^6 cells/mL with 25 μg/mL of mitomycin-C for 30 minutes to inactivate proliferation. At day 3 of cell culture, ^3H-thymidine was added. At day 4, T-cell proliferation was assessed via ^3H-thymidine incorporation that was determined using a beta scintillation counter.
# (§5) Sandwich ELISAs for mouse IL-17A/F and IFN-γ (R&D Systems Inc., Minneapolis, Minn.) were used to detect cytokine production in both non-sensitized and metal-sensitized female mouse spleens and isolated CD4+ T-cells that were harvested 48 h post paw re-challenge to metal allergen (day 14). […]
# IFN-γ [5] = test: Sandwich ELISA for mouse IFN-γ in supernatants of metal-challenged CD4+ T cells; type: cell-based; details: CD4+ T cells from metal-sensitized Caspase-1−/− mice
# Method: as §4, §5
# IFN-γ [6] = test: Sandwich ELISA for human IFN-γ in supernatants of metal-challenged PBMCs; type: cell-based; details: metal-reactive individuals' lymphocytes; supernatants harvested on day 6
# Method: as §1, §2, §3
Compound,"relative effectiveness in mitigating lymphocyte metal reactivity (comparison among inhibitors) ([1]; comparison of MCC950, Caspase-1 inhibitor, IL-1Ra, anti-IL-17A)",lymphocyte proliferation in response to Ni in the presence of inhibitor [1],lymphocyte proliferation to Ni combined with inhibitor compared to media control [1],IL-17A/F production to metal challenge in the presence of inhibitor (IL-17A/F [2]),mean paw inflammation upon challenge with Ni [3] [mm],IL-17A/F mean secretion in response to Ni (IL-17A/F [4]) [pg/mL],IFN-γ mean secretion in response to Ni (IFN-γ [5]) [pg/mL],"lymphocyte proliferation, mean response to Ni ([1]; other groups of individuals (FIGS. 9A, 9B, 10A))","lymphocyte proliferation, mean response to Ni ([1]; subset of individuals tested with anti-IL-17A (n=11))",IFN-γ production to metal challenge in the presence of inhibitor (IFN-γ [6])
"IL-1Ra: recombinant human IL-1Ra (R&D Systems), IL-1 receptor antagonist; b178 equates IL-1Ra with ANAKINRA",most effective inflammasome based inhibitor,significantly reduced lymphocyte proliferative responses,non-significantly different compared to media challenge,significantly suppressed,–,–,–,–,–,–
"[Cl][Ni][Cl] [Ni, Nickel (II) chloride]",–,–,–,–,6.195,131.5,956.6,"approximately 4,000 cpm","10,600 cpm",–
"Cbz-WEHD-CH2F [Caspase-1 inhibitor, reference compound]",–,significantly reduced lymphocyte reactivity,significant increases in cell proliferation,significantly suppressed,–,–,–,–,–,significantly suppressed both IL-17 and IFN-γ production
"CC(C)(O)c1coc(S(=O)(=O)NC(=O)Nc2c3c(cc4c2CCC4)CCC3)c1 [MCC950, reference compound]",–,only a weak proliferative response,significant increases in cell proliferation,significantly suppressed,–,–,–,–,–,not affected
